Assay results as given in patent publication US9284297B2, “Halofuginone analogs for inhibition of tRNA synthetases and uses thereof” (President and Fellows of Harvard College, priority 2008, dated 2016).

Test system: TGFβ-induced Smad phosphorylation and lymphocyte responses to TGFβ
Assay: TGFβ signaling in T and B cells
Format: cell-based, murine
Settings: low dose HF; 10 μM SB-431542
Experimental: FIG. 10. […] FIG. 10A is a set of FACS analyses of CD4^+ CD25^− T cells activated in Th1 or Th2 polarizing conditions, either in the presence or absence of TGFβ. DMSO, 10 nM HF, 10 nM MAZ1310, or 10 μM SB-431542 added as indicated at the time of activation. Intracellular cytokine staining was performed on expanded T cells on day 5.
FIG. 10D depicts western blot analyses of purified CD4^+ CD25^− T cells treated with DMSO, 40 nM MAZ1310, titrating concentrations of HF (2.5-40 nM) or 10 μM SB-431542 for 30 minutes in complete medium supplemented with 0.1% fetal calf serum. T cells were then activated in the presence or absence of 3 ng/ml TGFβ. Whole cell extracts were prepared after 1 hour of stimulation and western blot analyses were performed using the indicated antibodies.
Th17 differentiation is synergistically regulated by TGFβ and the pro-inflammatory cytokines IL-6 and IL-21. […] Since STAT3 is the major transducer of IL-6 and IL-21 signaling, the kinetics of STAT3 phosphorylation in HF-treated T cells were examined.
Whole cell lysates were generated from T cells activated for the indicated times. For STAT3 and Smad2/3 western blots cells were harvested, washed in PBS and lysed in 50 mM Tris, pH 7.4, 0.1% SDS, 1% Triton-X100, 140 mM NaCl, 1 mM EDTA, 1 mM EGTA supplemented with protease inhibitors tablets (Roche, Germany), 1 mM NaF and 1 mM Na3VO4. […]

In the case of `NC(=O)c1ccc(-c2nc(-c3ccc4c(c3)OCO4)c(-c3ccccn3)[nH]2)cc1` [SB-431542], the “effect on TGFβ-induced Smad phosphorylation and other lymphocyte responses to TGFβ” value was “abrogated all responses to TGFβ”.
